# Measurements from patent US9505768B2, “Compositions and methods for modulating TLR4” (The Regents of the University of California, priority 2012, dated 2016).
# Like-named read-outs stand apart in the source and are kept apart here.
# Columns and labels:
# [1] = tested on: mouse bone marrow derived dendritic cells (mBMDC); test: IL-6 induction in mouse bone marrow derived dendritic cells (ELISA); assay type: cell-based; details: relative to Cmpd 1 / within series
# Protocol: The above assays were utilized to compare the derivatives of the lead pyrimidoindole for their ability to activate mouse and human TLR4. […] Each cytokine induction curve was first converted to a percent activity curve, and then the AUC of the percent activity curve was calculated. The process of converting to a percent activity curve allowed subtracting background and adjusting for plate-to-plate variation.
# (§1) BMDC were prepared from C57BL/6 mice as described. See e.g., Wu, C. […] BMDC (10^5 cells per well) were plated in 96-well plates in 200 μL of complete RPMI1640 supplemented with 10% fetal calf serum (FCS; Sigma Aldrich), 100 U/mL penicillin, and 100 μg/mL streptomycin (Invitrogen). […] After 18 h incubation, the cell culture supernatants were collected. LPS (purified LPS, Invivogen, San Diego, Calif.) or MPLA (1 μg/mL synthetic MPLA, Invivogen, San Diego, Calif.) were used as positive controls. […] The AUC was calculated from BMDC dose-response curves using Prism 5 (GraphPad, San Diego). Each cytokine induction curve was first converted to a percent activity curve, and then the AUC of the percent activity curve was calculated. The process of converting to a percent activity curve allowed subtracting background and adjusting for plate-to-plate variation.
# [2] = tested on: mouse bone marrow derived dendritic cells (mBMDC); test: IP-10 induction in mBMDC (ELISA), surrogate marker of type I IFN; assay type: cell-based; details: relative to Cmpd 1
# Protocol: In addition to the production of inflammatory cytokines (IL-6, IL-12, TNFα, etc.) mediated by NFκB activation, TLR4 signaling can result in the production of type I interferons, a feature that is not only important for activation of dendritic cells leading to good adjuvant activity, but would also be important for rapid defense against a variety of pathogens, particularly viruses. […] To determine the relative ability of all compounds to induce the production of type 1 IFN, each was evaluated in mouse bone marrow derived dendritic cells as shown in Tables 1-3.
# as §1
# In addition, the levels of IP-10, a surrogate marker of type I IFN, in the supernatants were determined by ELISA (R&D Systems, Minneapolis, Minn.).
# mouse TLR4 = target: T1, mouse TLR4 (Mus musculus, UniProt Q9JHF9+Q9QUK6); test: Murine TLR4 HEK Blue NFκB/SEAP reporter assay; assay type: cell-based; details: mTLR4 HEK transfectoma, 312 nM to 10 μM; Cmpd 1 set at 100
# T1 construct: host or cells: HEK293 (HEK Blue) cells with NFκB/SEAP reporter
# T1 sequence (Q9QUK6 26-835): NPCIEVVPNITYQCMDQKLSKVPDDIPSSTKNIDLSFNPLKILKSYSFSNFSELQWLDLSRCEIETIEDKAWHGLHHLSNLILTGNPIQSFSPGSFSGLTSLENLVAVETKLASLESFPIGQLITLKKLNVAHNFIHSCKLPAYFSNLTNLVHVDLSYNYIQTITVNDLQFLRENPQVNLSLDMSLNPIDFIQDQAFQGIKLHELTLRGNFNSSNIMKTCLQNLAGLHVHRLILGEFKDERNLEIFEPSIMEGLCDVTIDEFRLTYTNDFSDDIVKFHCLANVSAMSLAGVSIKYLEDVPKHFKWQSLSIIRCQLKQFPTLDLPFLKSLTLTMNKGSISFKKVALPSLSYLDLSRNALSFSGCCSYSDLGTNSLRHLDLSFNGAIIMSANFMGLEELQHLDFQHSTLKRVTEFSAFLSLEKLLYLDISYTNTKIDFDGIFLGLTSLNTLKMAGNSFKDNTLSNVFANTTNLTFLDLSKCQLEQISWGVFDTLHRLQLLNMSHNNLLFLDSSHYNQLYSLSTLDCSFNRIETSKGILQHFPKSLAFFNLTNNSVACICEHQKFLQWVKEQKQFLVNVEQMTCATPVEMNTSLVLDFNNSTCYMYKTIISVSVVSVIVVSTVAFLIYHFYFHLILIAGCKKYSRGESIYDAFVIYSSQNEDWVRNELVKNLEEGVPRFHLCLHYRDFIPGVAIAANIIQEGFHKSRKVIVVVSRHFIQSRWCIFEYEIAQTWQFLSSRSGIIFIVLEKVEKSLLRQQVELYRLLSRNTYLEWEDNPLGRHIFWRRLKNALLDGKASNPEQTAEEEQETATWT
# T1 sequence (Q9JHF9 19-160): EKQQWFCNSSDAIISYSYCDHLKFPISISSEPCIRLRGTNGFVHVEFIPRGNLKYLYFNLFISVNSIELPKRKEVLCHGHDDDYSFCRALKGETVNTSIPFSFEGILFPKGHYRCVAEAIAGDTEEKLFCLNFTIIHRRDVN
# human TLR4 = target: T2, human TLR4 (Homo sapiens, UniProt O00206+Q9Y6Y9); test: Human TLR4 HEK Blue NFκB/SEAP reporter assay; assay type: cell-based; details: hTLR4 HEK293 transfectoma; all compounds tested at 10 μM; Cmpd 1 set at 100
# T2 construct: host or cells: HEK293 (HEK Blue) cells with NFκB/SEAP reporter
# C57BL/6 mice [3] = test: Protection from LPS/galactosamine-induced lethal liver injury; assay type: in vivo, mouse
# Protocol: FIGS. 11A-11B depict that administration of Cmpd 42 and Cmpd 33 protects hosts from LPS-induced lethal liver injury. FIG. 11A: Schematic showing that C57BL/6 mice were intraperitoneously injected with 500 nmol Cmpd. 42 (n=11) or Cmpd 33 (n=11). 40 μg MPLA (n=9) and vehicle (n=9) were used as positive and negative controls, respectively. Next day, mice were challenged with LPS (0.2 μg/animal) and galactosamine (12 mg/animal). FIG. 11B: Histogram showing results of sera collected 1.5 h post challenge and measured for TNFα. *:p<0.05 compared to vehicle treated mice.
# Lipopolysaccharide (LPS), a TLR4 ligand, causes severe lethal liver injury when administered with galactosamine. Pretreatment of mice with MPLA is known to improve the survival in this model. To study whether Cmpd 42 and Cmpd 33 are able to act as immunomodulatory agents similar to MPLA, the mice were treated with Cmpd 42 or Cmpd 33 and challenged with LPS/galatosamine the next day, as depicted in FIG. 11A. Over 80% of Cmpd 42 and 100% of Cmpd 33-treated mice survived.
# [4] = Oral bioavailability in mice (serum LC/MS); assay type: in vivo; details: mouse, C57BL/6 mice, 1 μmol oral vs 500 nmol i.v., AUC method
# Protocol: FIG. 14 depicts time course showing that Cmpd 42 is orally bioavailable in mice. C57BL/6 mice were intravenously (500 nmol) or orally (1 μmol) administered with Cmpd 42. Sera were collected at the indicated time point and concentration of the compound were measured by LC/MS. Legend: oral administration, closed circle; i.v. administration, closed box. X-axis: time (min). Y-axis: concentration of Cmpd 42 (nM).
# To test oral bioavailability, Cmpd 42 was orally or intravenously administered to C57BL/6 mice and the drug concentration in sera was measured. Results are depicted in FIG. 14.
# C57BL/6 mice [5] = details: in vivo
# [6] = tested on: mouse bone marrow derived dendritic cells (mBMDC); test: IL-6 induction in mouse bone marrow derived dendritic cells (ELISA); assay type: cell-based; details: 5 μM overnight, vs C57BL/6 WT
# [7] = tested on: mouse bone marrow derived dendritic cells (mBMDC); test: IP-10 induction in mBMDC (ELISA), surrogate marker of type I IFN; assay type: cell-based; details: 5 μM overnight, vs C57BL/6 WT
# mBMDC = test: MTT viability assay in mBMDC; details: 18 h, concentrations up to 10 μM
# Protocol: Cytotoxicity of the compounds was evaluated by MTT assay as a measure of viability. mBMDC (10^5/well) were incubated with graded concentrations of the compounds for 18 h and compared with vehicle (0.5% DMSO) and MPLA (1 μg/mL). […] (FIG. 6B) The cells were lysed after the overnight incubation with MTT reagents, and absorbance at 570 nm was measured, subtracting the reference absorbance at 650 nm. Data shown are mean±SEM of triplicates and are representative of two independent experiments showing similar results.
# T2 sequence (O00206 24-839): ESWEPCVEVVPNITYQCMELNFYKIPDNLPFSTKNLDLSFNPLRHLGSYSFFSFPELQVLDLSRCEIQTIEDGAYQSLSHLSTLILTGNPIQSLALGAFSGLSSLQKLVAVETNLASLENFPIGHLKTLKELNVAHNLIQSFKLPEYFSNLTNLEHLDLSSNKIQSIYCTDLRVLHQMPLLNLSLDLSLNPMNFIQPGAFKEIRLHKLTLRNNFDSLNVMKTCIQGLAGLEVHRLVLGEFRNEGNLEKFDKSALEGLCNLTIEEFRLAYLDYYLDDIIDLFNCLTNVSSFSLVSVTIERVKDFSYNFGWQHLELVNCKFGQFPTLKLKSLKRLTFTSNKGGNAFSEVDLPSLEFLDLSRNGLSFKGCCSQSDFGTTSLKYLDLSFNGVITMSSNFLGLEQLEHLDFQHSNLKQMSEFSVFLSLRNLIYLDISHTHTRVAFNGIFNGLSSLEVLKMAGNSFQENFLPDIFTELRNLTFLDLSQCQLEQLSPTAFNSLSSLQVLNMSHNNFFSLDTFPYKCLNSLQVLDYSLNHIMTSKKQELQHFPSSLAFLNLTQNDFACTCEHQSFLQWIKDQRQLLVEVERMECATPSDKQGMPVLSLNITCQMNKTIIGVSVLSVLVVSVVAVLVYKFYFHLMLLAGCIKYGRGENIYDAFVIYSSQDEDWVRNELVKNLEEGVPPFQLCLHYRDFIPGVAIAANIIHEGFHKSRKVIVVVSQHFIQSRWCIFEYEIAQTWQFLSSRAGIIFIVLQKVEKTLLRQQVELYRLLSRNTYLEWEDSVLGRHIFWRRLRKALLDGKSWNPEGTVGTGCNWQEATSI
# T2 sequence (Q9Y6Y9 19-160): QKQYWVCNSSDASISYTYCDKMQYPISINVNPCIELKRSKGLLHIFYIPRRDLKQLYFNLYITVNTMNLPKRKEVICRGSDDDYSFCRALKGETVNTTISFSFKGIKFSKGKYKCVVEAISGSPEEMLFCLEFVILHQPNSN
structure (smiles),measurement,setting,value
"Cn1c2ccccc2c2nc(SCC(=O)NC3CCCCC3)n(-c3ccccc3)c(=O)c21 [Compound 42, N-cyclohexyl-2-((5-methyl-4-oxo-3-phenyl-4,5-dihydro-3H-pyrimido[5,4-b]indol-2-yl)thio)acetamide]",IL-6 activity in mBMDC (in words),[1],high IL-6
same,IP-10 production in mBMDC (in words),[2],high IP-10 production
same,"mouse TLR4, area under curve (AUC) values normalized to Cmpd 1",mouse TLR4,100
same,"human TLR4, values normalized to Cmpd 1",human TLR4,92
same,serum TNFα,"C57BL/6 mice [3]; […] post challenge, compared to vehicle treated mice",significantly lower level
same,mice survived,"C57BL/6 mice [3]; i.p. pretreatment 500 nmol, LPS/galactosamine challenge next day",Over 80%
same,Survival,"C57BL/6 mice [3]; i.p. pretreatment (500 nmol Cmpd, 40 μg MPLA), next day LPS 0.2 μg + galactosamine 12 mg per animal, survivors/treated",9/11
same,bioavailability,[4],~15%
same,mice survived,"C57BL/6 mice [5]; C57BL/6, mouse",100%
same,maximum tolerated dose relative to MPLA,C57BL/6 mice [5]; mouse,> 10 times
same,serum TNFα,C57BL/6 mice [5]; mouse,significantly lower level
same,IL-6 secretion in MyD88 null dendritic cells,[6],significantly impaired
same,IP-10 induction in LPS mutant (Trif lps/lps) cells,[7],significantly decreased
same,cell viability (MTT),mBMDC,did not reduce cell viability
